According to BindingDB's records for PubMed 29656203 (n/a, 2018):

Experiment: Inhibition of angiotensin II (unknown origin)

SMILES: CCCCc1nc2ccc(C3CC(c4ccc(C)cc4)=NO3)cc2c(=O)n1Cc1ccc(-c2ccccc2-c2nnnn2C(c2ccccc2)(c2ccccc2)c2ccccc2)cc1 (configuration not stated)
- IC50: 22 nM

SMILES: CCCCc1nc2ccc(C3CC(C(=O)OCC)=NO3)cc2c(=O)n1Cc1ccc(-c2ccccc2-c2nnnn2C(c2ccccc2)(c2ccccc2)c2ccccc2)cc1 (configuration not stated)
- IC50: 22 nM
